Experiments:
GR complex = test: modulation of [35S]TBPS binding in rat cerebral cortex P2 homogenate; set-up: species or system Sprague-Dawley rats; IMAX: unit not given here
Method in brief: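 Rat (male Sprague-Dawley) cortical P2 homogenate, 0.5 mg protein, in 50 mM Na/K phosphate pH 7.4, 200 mM NaCl, incubated 90 min at 25° C with 2 nM [35S]TBPS plus GABA and (+)bicuculline, compounds added in DMSO. Filter-bound radioactivity counted; nonspecific binding defined with […].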

rats = test: Geller-Seifter conflict test; format: in vivo, Sprague-Dawley rats
From the text: This animal model of human anxiety utilizes a conditioned state of conflict in rats to ascertain the anxiolytic properties of drugs. Rats are conditioned to bar press for positive reinforcement under two schedules of behavior (Geller and Seifter, Psychopharmacologia 1:482-492 (1960)). The first includes bar pressing under a […] schedule without punishment. The second component is a fixed ratio schedule with each bar press resulting in a positive reinforcement and a punishment. The punished component produces a state of conflict within the animal. […] An anxiolytic response would increase the punished responding without affecting the unpunished responding.
Male albino Sprague-Dawley rats (Charles River Labs, Wilmington, MA) weighing 250-300 g were used for conflict experiments and were kept on a restricted diet of Purina Lab Chow food pellets with water available at all times to maintain body weight at 85% of their free-feeding young adult levels. Rats were housed individually under a 12-hour light-dark cycle with lights on from 0700-1900.
The anti-anxiety (punishment-lessening) and response depressant effects of […] and […] were measured in rats by the conflict test of Geller and Seifter (1960). In this 63-min test, hungry rats perform a lever-press response to obtain a sweetened milk reward. The reinforcement schedule consists of punishment and nonpunishment components, alternating approximately every 15 min. Rats were trained in test chambers (Coulbourn instruments) with a lever mounted in one wall, a small dipper that delivered the 0.1-mL milk reward (1 part Eagle condensed : milk 2 parts water), and a metal grid floor through which the foot-shock punishment was administered. A DEC PDP 11/73 minicomputer running SKED (State Systems) was used for programming and recording.
Rates initially learned to respond on a continuous reinforcement schedule and progressed rapidly to 30-sec, 1-min, and 2-min variable interval (VI) schedules. On the continuous reinforcement schedule, rats received milk reward following every lever press; on the VI schedules, milk rewards were available at infrequent and variable intervals, eventually at an average of once every 2 min. Four 3-min "conflict" periods were then introduced on the unpunished VI baseline; the first started after 3 min of VI performance and the others were alternated between 12-min periods of VI responding. During conflict periods, which were signalled by the presentation of a light and a tone, the continuous reinforcement schedule was again in force and each lever press delivered both a milk reward and a brief ([…]) foot-shock punishment. Shock intensity was 0.2 mA initially, and.was increased daily in increments of 0.02 mA in order to gradually suppress lever pressing to 5 responses or less per conflict period. This training took 4-6 weeks, after which stable low rates of response were observed during conflict periods and stable high rates in the nonpunishment periods. Drug-induced increases in the rate of punished responses were taken as an index of antianxiety activity, while decreases in the rate of unpunished responses were taken as an index of response depression or sedation.

[1] = conflict test, subcutaneous administration

SMILES: CC(=O)[C@H]1CC[C@H]2[C@@H]3CC[C@H]4C[C@H](O)CC[C@]4(C)[C@H]3CC[C@]12C [3α-hydroxy-5α-pregnan-20-one, reference compound]
- IC50 (GR complex; concentration of compounds to inhibit 50% of control [35S]TBPS binding, 2 nM [35S]TBPS, 25°C, 90 minutes, no unit printed): 37 nM
- IMAX (GR complex; maximum inhibition of [35S]TBPS binding, I* = Inactive): 95
- dose at which the peak effect was observed (rats; [1]): 4.4 mg/kg
- rate of punished responses (rats; [1]): large increases
- Geller/Seifter (% of control) (rats; sc, 50% hpbcd, 5 mg/kg): 471.8 % of control

— EP0808325B1, “[…] […] SERIES FOR […] GABA RECEPTOR” (priority 1994, dated 1996)
